According to Sander's compilation of Henry's law constants:

What was measured:
[1] = Henry solubility constant Hcp at 296 K (mol/(m3 Pa))
[2] = Henry solubility constant Hcp at 298.15 K (mol/(m3 Pa))
[3] = Henry solubility constant Hcp at 310 K (mol/(m3 Pa))
[4] = Henry solubility constant Hcp at 293 K (mol/(m3 Pa))
[5] = reference: Fendinger et al. (1989)
[6] = reference: Lerman et al. (1983)
[7] = reference: Stoelting and Longshore (1972)
[8] = reference: Smith et al. (1981b)
[9] = reference: Miller and Stuart (2000)
[10] = reference: Arp and Schmidt (2004)
[11] = reference: Nicholson et al. (1984)
[12] = reference: Ruiz-Bevia and Fernandez-Torres (2010)
[13] = reference: Warner et al. (1980)
[14] = reference: Power and Stegall (1970)
[15] = reference: Nielsen et al. (1994)

Clc1ccc(C(c2ccc(Cl)cc2)C(Cl)(Cl)Cl)cc1 [1,1,1-trichloro-2,2-bis-(4-chlorophenyl)-ethane]
Henry solubility constant Hcp at 296 K [1, 5]: 0.77 | Henry solubility constant Hcp [2, 5]: 1.2

Cc1ccc(C)c(C)c1 [1,2,4-trimethylbenzene]
Henry solubility constant Hcp at 310 K ([3]; reference: Järnberg and Johanson (1995)): 0.00062 | Henry solubility constant Hcp at 293 K ([4]; reference: Yurteri et al. (1987)): 0.0021 | Henry solubility constant Hcp ([2]; reference: Li et al. (2008)): 0.0017

FC(F)(F)C(Cl)Br (stereo not drawn) [1-bromo-1-chloro-2,2,2-trifluoroethane]
Henry solubility constant Hcp at 310 K [3, 6]: 0.00033 | Henry solubility constant Hcp at 310 K ([3]; reference: Saidman et al. (1966)): 0.00034 | Henry solubility constant Hcp at 310 K [3, 7]: 0.00032 | Henry solubility constant Hcp [2, 8]: 0.00053

FC(F)OC(Cl)C(F)(F)F (stereo not drawn) [1-chloro-2,2,2-trifluoroethyl difluoromethyl ether]
Henry solubility constant Hcp at 310 K [3, 6]: 0.00024 | Henry solubility constant Hcp [2, 8]: 0.00048

CCCCOCC [1-ethoxy-butane]
Henry solubility constant Hcp at 296 K [1, 9]: 0.0064

C=C(C)C1CC=C(C)CC1 (stereo not drawn) [1-methyl-4-(1-methylethenyl)-cyclohexene]
Henry solubility constant Hcp at 310 K ([3]; reference: Falk et al. (1990)): 0.0007 | Henry solubility constant Hcp ([2]; reference: Copolovici and Niinemets (2007)): 0.00026 | Henry solubility constant Hcp ([2]; reference: Fichan et al. (1999)): 0.0007 | Henry solubility constant Hcp ([2]; reference: Leng et al. (2013)): 0.00048

COC(F)(F)C(Cl)Cl [2,2-dichloro-1,1-difluoro-1-methoxyethane]
Henry solubility constant Hcp at 310 K [3, 6]: 0.0017 | Henry solubility constant Hcp at 310 K [3, 7]: 0.0018 | Henry solubility constant Hcp [2, 8]: 0.0029

CCC(C)(C)OC [2-methoxy-2-methylbutane]
Henry solubility constant Hcp at 296 K [1, 9]: 0.0052 | Henry solubility constant Hcp [2, 10]: 0.0086 | Henry solubility constant Hcp ([2]; reference: Haimi et al. (2006)): 0.01 | Henry solubility constant Hcp ([2]; reference: Hwang et al. (2010)): 0.053 | Henry solubility constant Hcp ([2]; reference: Park et al. (1997)): 0.007

C=COCC(F)(F)F [(2,2,2-trifluoroethoxy)-ethene]
Henry solubility constant Hcp at 310 K ([3]; reference: Munson et al. (1964)): 0.00033 | Henry solubility constant Hcp at 310 K [3, 7]: 0.00032 | Henry solubility constant Hcp [2, 8]: 0.00055

ClC(Cl)Br [bromodichloromethane]
Henry solubility constant Hcp at 310 K ([3]; reference: Zhang et al. (2002)): 0.0029 | Henry solubility constant Hcp ([2]; reference: Ervin et al. (1980)): 0.0035 | Henry solubility constant Hcp [2, 11]: 0.0047 | Henry solubility constant Hcp [2, 12]: 0.0058 | Henry solubility constant Hcp [2, 13]: 0.0047

O=C=O [carbon dioxide]
Henry solubility constant Hcp at 310 K [3, 14]: 0.00024 | Henry solubility constant Hcp ([2]; reference: Bohr (1899)): 0.00034 | Henry solubility constant Hcp ([2]; reference: Bunsen (1855a)): 0.00034 | Henry solubility constant Hcp ([2]; reference: Geffcken (1904)): 0.00033 | Henry solubility constant Hcp ([2]; reference: Kunerth (1922)): 0.00033 | Henry solubility constant Hcp ([2]; reference: Morrison and Billett (1952)): 0.00033 | Henry solubility constant Hcp ([2]; reference: Murray and Riley (1971)): 0.00033 | Henry solubility constant Hcp ([2]; reference: Orcutt and Seevers (1937a)): 0.00033 | Henry solubility constant Hcp ([2]; reference: Zheng et al. (1997)): 0.00034

[C-]#[O+] [carbon monoxide]
Henry solubility constant Hcp at 310 K [3, 14]: 8.3e-06 | Henry solubility constant Hcp ([2]; reference: Bunsen (1855a)): 9.5e-06 | Henry solubility constant Hcp ([2]; reference: Meadows and Spedding (1974)): 7.9e-05 | Henry solubility constant Hcp ([2]; reference: Rettich et al. (1982)): 9.7e-06 | Henry solubility constant Hcp ([2]; reference: Schmidt (1979)): 7e-06 | Henry solubility constant Hcp ([2]; reference: Winkler (1901)): 9.4e-06

ClC1=C(Cl)[C@]2(Cl)C3C(Cl)C(Cl)CC3[C@@]1(Cl)C2(Cl)Cl (stereo partly drawn) [chlordane]
Henry solubility constant Hcp at 296 K [1, 5]: 0.18 | Henry solubility constant Hcp [2, 5]: 0.12 | Henry solubility constant Hcp [2, 13]: 0.21

C[Si]1(C)O[Si](C)(C)O[Si](C)(C)O[Si](C)(C)O[Si](C)(C)O1 [decamethylcyclopentasiloxane]
Henry solubility constant Hcp at 296 K ([1]; reference: David et al. (2000)): 7.4e-05 | Henry solubility constant Hcp ([2]; reference: Xu and Kropscott (2012)): 3e-07 | Henry solubility constant Hcp ([2]; reference: Xu and Kropscott (2014)): 2.8e-07

CCOP(=S)(OCC)Oc1cc(C)nc(C(C)C)n1 [diazinon]
Henry solubility constant Hcp at 296 K ([1]; reference: Fendinger and Glotfelty (1988)): 88 | Henry solubility constant Hcp at 296 K [1, 5]: 84 | Henry solubility constant Hcp ([2]; reference: Feigenbrugel et al. (2004a)): 15

ClC(Br)Br [dibromochloromethane]
Henry solubility constant Hcp at 310 K ([3]; reference: Zhang et al. (2002)): 0.0046 | Henry solubility constant Hcp ([2]; reference: Ervin et al. (1980)): 0.0085 | Henry solubility constant Hcp [2, 11]: 0.0086 | Henry solubility constant Hcp [2, 12]: 0.011 | Henry solubility constant Hcp [2, 13]: 0.013

CCCCOC(=O)c1ccccc1C(=O)OCCCC [dibutyl phthalate]
Henry solubility constant Hcp at 296 K ([1]; reference: Atlas et al. (1983)): 5.5

CCOCC [diethyl ether]
Henry solubility constant Hcp at 310 K ([3]; reference: Brody et al. (1971)): 0.0063 | Henry solubility constant Hcp at 310 K ([3]; reference: Eger et al. (1963)): 0.0051 | Henry solubility constant Hcp at 293 K ([4]; reference: Yu (1992)): 0.0033 | Henry solubility constant Hcp ([2]; reference: Bachofen and Farhi (1971)): 0.013 | Henry solubility constant Hcp [2, 15]: 0.011 | Henry solubility constant Hcp ([2]; reference: Ondo and Dohnal (2007)): 0.01 | Henry solubility constant Hcp ([2]; reference: Signer et al. (1969)): 0.0078

CC(C)OC(C)C [diisopropyl ether]
Henry solubility constant Hcp at 296 K [1, 9]: 0.0043 | Henry solubility constant Hcp [2, 10]: 0.0039 | Henry solubility constant Hcp ([2]; reference: Hwang et al. (2010)): 0.015 | Henry solubility constant Hcp [2, 15]: 0.0048

CCOC(C)(C)C [ethyl tert-butyl ether]
Henry solubility constant Hcp at 296 K [1, 9]: 0.0042 | Henry solubility constant Hcp [2, 10]: 0.0061 | Henry solubility constant Hcp ([2]; reference: Haimi et al. (2006)): 0.0064 | Henry solubility constant Hcp ([2]; reference: Hwang et al. (2010)): 0.12 | Henry solubility constant Hcp ([2]; reference: Sieg et al. (2009)): 0.0063
